This experiment concerns the target T1, F508delCFTR (Homo sapiens, UniProt P13569, DEL508-508).
T1 construct: expressed in transfected cells; host or cells: CFBE41o- human lung-derived epithelial cells (CFBE4lo-F508delCFTR-HRP), doxycycline-inducible
Nature of the experiment: Cell Surface Expression-Horse Radish Peroxidase (CSE-HRP) Assay.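 On Maximum % activity (with co-corrector): co-corrector and positive control are both the same reference corrector at 2 µM.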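 On Maximum % activity (without co-corrector): percent of the 2 µM on-plate positive control corrector response above DMSO.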 In kind it is cell-based. As to conditions: for Maximum % activity (with co-corrector): with co-corrector (2 μM); for Maximum % activity (with co-corrector) / Emax: maximum at any tested concentration, normalized to on-plate positive control; for Emax: without co-corrector, read-out: Maximum % activity (without co-corrector).

The mark [1] stands for this setting: test compound without co-corrector, read-out: EC50 (without co-corrector).
Setting [2] is: with co-corrector (2 μM of 3-[(2R,4R)-4-({[1-(2,2-difluoro-1,3-benzodioxol-5-yl)cyclopropyl]carbonyl}amino)-7-methoxy-3,4-dihydro-2H-chromen-2-yl]benzoic acid), read-out: EC50 (with co-corrector).

Data on 17 compounds can be found in patent US20180099931A1 (AbbVie S.à.r.l., priority 2016, published 2018).

pEC50: −log10 of the molar value. Read-outs that look alike come from different tables or passages of the source.

T1 sequence (P13569 with tags, fused parts or gaps DEL508-508): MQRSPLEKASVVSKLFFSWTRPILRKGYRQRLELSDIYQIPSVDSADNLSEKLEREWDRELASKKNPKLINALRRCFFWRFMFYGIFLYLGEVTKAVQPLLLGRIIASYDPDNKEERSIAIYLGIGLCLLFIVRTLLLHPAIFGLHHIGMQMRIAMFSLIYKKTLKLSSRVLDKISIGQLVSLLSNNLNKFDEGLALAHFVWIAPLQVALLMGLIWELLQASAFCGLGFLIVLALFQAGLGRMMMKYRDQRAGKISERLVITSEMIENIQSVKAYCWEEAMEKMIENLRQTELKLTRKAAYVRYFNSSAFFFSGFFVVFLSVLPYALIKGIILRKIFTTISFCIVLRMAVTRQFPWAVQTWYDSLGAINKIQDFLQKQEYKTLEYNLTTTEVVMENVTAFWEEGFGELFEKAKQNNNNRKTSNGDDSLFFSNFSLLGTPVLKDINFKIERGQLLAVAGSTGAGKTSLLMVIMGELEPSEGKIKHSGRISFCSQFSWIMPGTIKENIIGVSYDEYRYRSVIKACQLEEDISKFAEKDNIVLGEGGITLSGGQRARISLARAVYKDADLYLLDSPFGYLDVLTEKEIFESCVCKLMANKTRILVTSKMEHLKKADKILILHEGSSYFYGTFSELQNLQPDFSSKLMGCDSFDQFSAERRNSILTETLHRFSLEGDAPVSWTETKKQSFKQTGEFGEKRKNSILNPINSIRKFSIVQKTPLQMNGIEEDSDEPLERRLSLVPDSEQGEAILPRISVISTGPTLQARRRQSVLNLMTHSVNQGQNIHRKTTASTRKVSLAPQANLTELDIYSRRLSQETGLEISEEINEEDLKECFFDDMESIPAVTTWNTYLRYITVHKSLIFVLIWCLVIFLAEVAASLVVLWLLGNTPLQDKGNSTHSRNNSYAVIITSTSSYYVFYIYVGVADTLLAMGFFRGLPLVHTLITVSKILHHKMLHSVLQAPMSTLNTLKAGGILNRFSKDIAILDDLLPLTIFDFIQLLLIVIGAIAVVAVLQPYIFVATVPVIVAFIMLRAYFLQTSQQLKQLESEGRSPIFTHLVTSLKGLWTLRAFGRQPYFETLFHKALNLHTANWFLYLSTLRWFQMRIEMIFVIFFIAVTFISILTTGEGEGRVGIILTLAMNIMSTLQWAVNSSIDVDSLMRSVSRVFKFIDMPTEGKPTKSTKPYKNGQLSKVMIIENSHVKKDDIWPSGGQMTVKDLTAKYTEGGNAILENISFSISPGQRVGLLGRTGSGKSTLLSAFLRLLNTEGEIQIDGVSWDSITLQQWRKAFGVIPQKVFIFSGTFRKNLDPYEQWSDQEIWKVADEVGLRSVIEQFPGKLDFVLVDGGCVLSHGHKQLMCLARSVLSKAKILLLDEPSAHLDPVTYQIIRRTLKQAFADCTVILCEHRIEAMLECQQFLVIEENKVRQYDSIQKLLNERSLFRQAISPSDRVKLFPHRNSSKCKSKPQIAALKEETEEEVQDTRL

Consider `COc1ncc(C(F)(F)F)cc1CN[C@H]1[C@H](C(C)(C)C)[C@@H](C(=O)O)N(C(=O)[C@@H]2CCCCO2)[C@H]1c1ccccc1C(C)C` [Example 84, (2S,3S,4S,5S)-3-tert-butyl-4-({[2-methoxy-5-(trifluoromethyl)pyridin-3-yl]methyl}amino)-1-[(2S)-oxane-2-carbonyl]-5-[2-(propan-2-yl)phenyl]pyrrolidine-2-carboxylic acid], for which the “Maximum % activity (with co-corrector)” value is listed as “+++ (≥350)” and the Emax was greater than 200%. The negative-log EC50 (pEC50) under setting [1] is greater than 6.00. Further, the negative logarithm of the EC50 (pEC50) under setting [2] was greater than 6.00.
With `COc1ncc(C(F)(F)F)cc1CN[C@H]1[C@H](C(C)(C)C)[C@@H](C(=O)O)N(C(=O)[C@H]2CCCCO2)[C@H]1c1ccccc1C(C)C` [Example 85, (2S,3S,4S,5S)-3-tert-butyl-4-({[2-methoxy-5-(trifluoromethyl)pyridin-3-yl]methyl}amino)-1-[(2R)-oxane-2-carbonyl]-5-[2-(propan-2-yl)phenyl]pyrrolidine-2-carboxylic acid], the “Maximum % activity (with co-corrector)” value is on record as “+++ (≥350)” and the Emax is greater than 200%. Moreover, the pEC50 under setting [1] is 5.00 to 6.00. The negative logarithm of the EC50 (pEC50) under setting [2] was greater than 6.00.
As for `COc1ccc(C(C)(C)C)cc1CN[C@H]1[C@H](C(C)(C)C)[C@@H](C(=O)O)N(C(=O)OC(C)C)[C@H]1c1cccc(Cl)c1` [Example 86, (2S,3S,4S,5S)-3-tert-butyl-4-{[(5-tert-butyl-2-methoxyphenyl)methyl]amino}-5-(3-chlorophenyl)-1-{[(propan-2-yl)oxy]carbonyl}pyrrolidine-2-carboxylic acid], the “Maximum % activity (with co-corrector)” value is given as “+++ (≥350)” and the Emax was greater than 200%. In addition, the pEC50 under setting [1] is 5.00 to 6.00. Also, the pEC50 under setting [2] is greater than 6.00.
For the compound `COc1ncc(C2CCC2)cc1CN[C@H]1[C@H](C(C)(C)C)[C@@H](C(=O)O)N(C(=O)OC(C)C)[C@H]1c1cccnc1OC(C)C` [Example 87, (2S,3S,4S,5S)-3-tert-butyl-4-{[(5-cyclobutyl-2-methoxypyridin-3-yl)methyl]amino}-1-{[(propan-2-yl)oxy]carbonyl}-5-{2-[(propan-2-yl)oxy]pyridin-3-yl}pyrrolidine-2-carboxylic acid], the “Maximum % activity (with co-corrector)” value was “+++ (≥350)” and the Emax is greater than 200%. In addition, under setting [1], the pEC50 was 5.00 to 6.00. For the same compound, under setting [2], the pEC50 is 5.00 to 6.00.
In the case of `COc1cc(C(F)(F)F)ccc1CN[C@H]1[C@H](C(C)(C)C)[C@@H](C(=O)O)N(C(=O)C2CCCCC2)[C@H]1c1ccccc1C` [Example 88, (2S,3S,4S,5S)-3-tert-butyl-1-(cyclohexanecarbonyl)-4-({[2-methoxy-4-(trifluoromethyl)phenyl]methyl}amino)-5-(2-methylphenyl)pyrrolidine-2-carboxylic acid], the “Maximum % activity (with co-corrector)” value is “+++ (≥350)” and the Emax was greater than 200%. Further, under setting [1], the negative logarithm of the EC50 (pEC50) was greater than 6.00. Besides, the negative logarithm of the EC50 (pEC50) under setting [2] is greater than 6.00.
On to `COc1ncc(C2CCC2)cc1CN[C@H]1[C@H](C(C)(C)C)[C@@H](C(=O)O)N(C(=O)[C@@H]2CCCO2)[C@H]1c1ccccc1C(C)C` [Example 89, (2S,3S,4S,5S)-3-tert-butyl-4-{[(5-cyclobutyl-2-methoxypyridin-3-yl)methyl]amino}-1-[(2S)-oxolane-2-carbonyl]-5-[2-(propan-2-yl)phenyl]pyrrolidine-2-carboxylic acid], for which the “Maximum % activity (with co-corrector)” value is “+++ (≥350)” and the Emax is greater than 200%. In addition, under setting [1], the pEC50 is 5.00 to 6.00. The negative logarithm of the EC50 (pEC50) under setting [2] was greater than 6.00.
The like results for `COc1cc2c(cc1CN[C@H]1[C@H](C(C)(C)C)[C@@H](C(=O)O)N(C(=O)OC(C)C)[C@H]1c1ccccc1C)CCC2` [Example 90, (2S,3S,4S,5S)-3-tert-butyl-4-{[(6-methoxy-2,3-dihydro-1H-inden-5-yl)methyl]amino}-5-(2-methylphenyl)-1-{[(propan-2-yl)oxy]carbonyl}pyrrolidine-2-carboxylic acid] were, in that order, “+++ (≥350)”, greater than 200%, 5.00 to 6.00 and 5.00 to 6.00.
Take `COc1ncc(C(F)(F)F)cc1CN[C@H]1[C@H](C(C)(C)C)[C@@H](C(=O)O)N(C(=O)OC(C)C)[C@H]1c1ccccc1C1CC1` [Example 91, (2S,3S,4S,5S)-3-tert-butyl-5-(2-cyclopropylphenyl)-4-({[2-methoxy-5-(trifluoromethyl)pyridin-3-yl]methyl}amino)-1-{[(propan-2-yl)oxy]carbonyl}pyrrolidine-2-carboxylic acid]: the “Maximum % activity (with co-corrector)” value is recorded as “+++ (≥350)” and the Emax was greater than 200%. The negative logarithm of the EC50 (pEC50) under setting [1] is greater than 6.00. Besides, the pEC50 under setting [2] was greater than 6.00.
`COc1ncc(C2CCC2)cc1CN[C@H]1[C@H](C(C)(C)C)[C@@H](C(=O)O)N(C(=O)C2CCCCC2)[C@H]1c1ccccc1C` [Example 92, (2S,3S,4S,5S)-3-tert-butyl-4-{[(5-cyclobutyl-2-methoxypyridin-3-yl)methyl]amino}-1-(cyclohexanecarbonyl)-5-(2-methylphenyl)pyrrolidine-2-carboxylic acid]: the “Maximum % activity (with co-corrector)” value was “+++ (≥350)” and the Emax is greater than 200%. Besides, the pEC50 under setting [1] was greater than 6.00. Further, the pEC50 under setting [2] was greater than 6.00.
For the compound `COc1ncc(C2CCC2)cc1CN[C@H]1[C@H](C(C)(C)C)[C@@H](C(=O)O)N(C(=O)OC(C)C)[C@H]1c1ccccc1C1CC1` [Example 93, (2S,3S,4S,5S)-3-tert-butyl-4-{[(5-cyclobutyl-2-methoxypyridin-3-yl)methyl]amino}-5-(2-cyclopropylphenyl)-1-{[(propan-2-yl)oxy]carbonyl}pyrrolidine-2-carboxylic acid], the “Maximum % activity (with co-corrector)” value is recorded as “+++ (≥350)” and the Emax was greater than 200%. Also, the pEC50 under setting [1] is 5.00 to 6.00. Also, the pEC50 under setting [2] was greater than 6.00.
For the compound `COc1ncc(C2CCC2)cc1CN[C@H]1[C@H](C(C)(C)C)[C@@H](C(=O)O)N(C(=O)OC(C)C)[C@H]1c1ccccc1C` [Example 94, (2S,3S,4S,5S)-3-tert-butyl-4-{[(5-cyclobutyl-2-methoxypyridin-3-yl)methyl]amino}-5-(2-methylphenyl)-1-{[(propan-2-yl)oxy]carbonyl}pyrrolidine-2-carboxylic acid], the “Maximum % activity (with co-corrector)” value is reported as “+++ (≥350)” and the Emax was greater than 200%. The negative logarithm of the EC50 (pEC50) under setting [1] is 5.00 to 6.00. The negative-log EC50 (pEC50) under setting [2] was greater than 6.00.
Take `COc1ncc(C(F)(F)F)cc1CN[C@H]1[C@H](C(C)(C)C)[C@@H](C(=O)O)N(C(=O)[C@@H]2CCCO2)[C@H]1c1ccccc1C(C)C` [Example 95, (2S,3S,4S,5S)-3-tert-butyl-4-({[2-methoxy-5-(trifluoromethyl)pyridin-3-yl]methyl}amino)-1-[(2S)-oxolane-2-carbonyl]-5-[2-(propan-2-yl)phenyl]pyrrolidine-2-carboxylic acid]: the “Maximum % activity (with co-corrector)” value was “+++ (≥350)” and the Emax is greater than 200%. Under setting [1], the pEC50 was greater than 6.00. Moreover, the negative logarithm of the EC50 (pEC50) under setting [2] was greater than 6.00.
`COc1ccc(C(C)(C)C)cc1CN[C@H]1[C@H](C(C)(C)C)[C@@H](C(=O)O)N(C(=O)[C@@H]2CCCO2)[C@H]1c1cccnc1C1CC1` [Example 96, (2S,3S,4S,5S)-3-tert-butyl-4-{[(5-tert-butyl-2-methoxyphenyl)methyl]amino}-5-(2-cyclopropylpyridin-3-yl)-1-[(2S)-oxolane-2-carbonyl]pyrrolidine-2-carboxylic acid]: the “Maximum % activity (with co-corrector)” value is recorded as “+++ (≥350)” and the Emax is 100 to 200%. The negative logarithm of the EC50 (pEC50) under setting [1] is 5.00 to 6.00. Moreover, the pEC50 under setting [2] is 5.00 to 6.00.
As for `CCOC(=O)N1[C@H](C(=O)O)[C@@H](C(C)(C)C)[C@H](NCc2cc(C(F)(F)F)cnc2OC)[C@@H]1c1ccccc1C(C)C` [Example 97, (2S,3S,4S,5S)-3-tert-butyl-1-(ethoxycarbonyl)-4-({[2-methoxy-5-(trifluoromethyl)pyridin-3-yl]methyl}amino)-5-[2-(propan-2-yl)phenyl]pyrrolidine-2-carboxylic acid], the “Maximum % activity (with co-corrector)” value is reported as “+++ (≥350)” and the Emax is greater than 200%. Moreover, the negative logarithm of the EC50 (pEC50) under setting [1] was greater than 6.00. Besides, under setting [2], the pEC50 was greater than 6.00.
For `COc1ncc(C(F)(F)F)cc1CN[C@H]1[C@H](C(C)(C)C)[C@@H](C(=O)O)N(C(=O)C2CCCC2)[C@H]1c1ccccc1C(C)C` [Example 98, (2S,3S,4S,5S)-3-tert-butyl-1-(cyclopentanecarbonyl)-4-({[2-methoxy-5-(trifluoromethyl)pyridin-3-yl]methyl}amino)-5-[2-(propan-2-yl)phenyl]pyrrolidine-2-carboxylic acid], the “Maximum % activity (with co-corrector)” value is on record as “+++ (≥350)” and the Emax is greater than 200%. For the same compound, the pEC50 under setting [1] is greater than 6.00. Besides, under setting [2], the pEC50 is greater than 6.00.
On to `COc1ccc(C(C)(C)C)cc1CN[C@H]1[C@H](C(C)(C)C)[C@@H](C(=O)O)N(C(=O)OC(C)C)[C@H]1c1cccnc1N1CCC1` [Example 99, (2S,3S,4S,5S)-5-[2-(azetidin-1-yl)pyridin-3-yl]-3-tert-butyl-4-{[(5-tert-butyl-2-methoxyphenyl)methyl]amino}-1-{[(propan-2-yl)oxy]carbonyl}pyrrolidine-2-carboxylic acid], for which the “Maximum % activity (with co-corrector)” value is listed as “+++ (≥350)” and the Emax was greater than 200%. For the same compound, the negative-log EC50 (pEC50) under setting [1] is 5.00 to 6.00. The pEC50 under setting [2] is 5.00 to 6.00.
For `COc1nc2ccccc2cc1CN[C@H]1[C@H](C(C)(C)C)[C@@H](C(=O)O)N(C(=O)[C@@H]2CCCO2)[C@H]1c1ccccc1C(C)C` [Example 100, (2S,3S,4S,5S)-3-tert-butyl-4-{[(2-methoxyquinolin-3-yl)methyl]amino}-1-[(2S)-oxolane-2-carbonyl]-5-[2-(propan-2-yl)phenyl]pyrrolidine-2-carboxylic acid], the “Maximum % activity (with co-corrector)” value is on record as “+++ (≥350)” and the Emax was greater than 200%. In addition, under setting [1], the pEC50 is 5.00 to 6.00. Also, the negative logarithm of the EC50 (pEC50) under setting [2] is greater than 6.00.
